Data set [1] deals with T1, α-D-galactosidase (α-PsGal) (Pseudoalteromonas sp. KMM 701, UniProt Q19AX0).
T1 sequence (Q19AX0 1-710): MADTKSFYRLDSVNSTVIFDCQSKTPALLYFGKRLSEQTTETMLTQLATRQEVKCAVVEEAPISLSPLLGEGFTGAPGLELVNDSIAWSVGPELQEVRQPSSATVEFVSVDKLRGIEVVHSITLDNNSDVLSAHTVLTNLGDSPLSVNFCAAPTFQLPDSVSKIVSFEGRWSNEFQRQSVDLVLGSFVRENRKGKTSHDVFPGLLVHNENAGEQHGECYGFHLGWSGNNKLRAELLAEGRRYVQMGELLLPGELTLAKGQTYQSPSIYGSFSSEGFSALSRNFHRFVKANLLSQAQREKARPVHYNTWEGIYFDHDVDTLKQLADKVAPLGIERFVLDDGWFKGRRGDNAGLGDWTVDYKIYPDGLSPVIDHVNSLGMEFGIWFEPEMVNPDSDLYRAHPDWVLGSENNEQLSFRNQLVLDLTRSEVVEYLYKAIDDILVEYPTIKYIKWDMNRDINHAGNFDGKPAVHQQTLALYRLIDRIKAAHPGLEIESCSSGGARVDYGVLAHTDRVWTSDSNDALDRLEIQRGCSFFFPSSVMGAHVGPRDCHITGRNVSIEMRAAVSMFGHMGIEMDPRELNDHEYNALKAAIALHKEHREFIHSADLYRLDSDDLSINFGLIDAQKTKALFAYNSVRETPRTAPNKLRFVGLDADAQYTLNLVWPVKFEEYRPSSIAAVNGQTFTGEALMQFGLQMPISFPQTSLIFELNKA
The experiment in a line: Inhibitory potency on recombinant α-PsGal (residual activity). It is filed as biochemical. The note with it: for Residual activity v/v0 (%) of the α-PsGal: preincubated 30 min, 20 °C, pH 7.0. As to the method: The recombinant wild-type α-D-galactosidase (α-PsGal) was produced as described earlier. The plasmid DNA pET-40b(+) containing insertion of the gene from the marine bacterium Pseudoalteromonas sp. KMM 701 encoding α-PsGal was transformed in the Escherichia coli strain Rosetta (DE3). Heterological expression was carried out at optimal conditions as described earlier. Purification of the recombinant […] was performed, according to described procedures. The purification quality was controlled by 12% Laemmli-SDS-PAGE-electrophoresis.
The activity of α-PsGal and α-NaGalase were determined by increasing the amount of p-nithrophenol (pNP). To assay the α-NaGalase activity 0.05 mL of cell extract and 0.1 mL of substrate pNPNA-α-Gal (8.8 mM) in 0.05 M sodium citrate buffer, pH 5.0 were placed in cells of 96-well plate and incubated at 37 °C for 30 min. The mixtures containing 0.05 mL of an enzyme solution and 0.1 mL of a substrate solution (3.3 mM) in 0.05 M sodium phosphate buffer (pH 7.0) were incubated at 20 °C during 5 min for determination of α-PsGal standard activity. The reactions were stopped by the addition of 0.15 mL of 1 M Na2CO3 solution.
Absorbance was measured at 400 nm. Results were read with a computer program Gen5 and treated with ExCel computer program. The unit of standard activity (U) was defined as the amount of the enzyme catalyzing the formation of 1 µmol of p-nitrophenol (ε400 = 18,300 M^−1 cm^−1) per 1 min under the conditions indicated. Specific activity (A) was calculated as the enzyme activity (U) per 1 mg of protein. All calculations were based on reactions with consumption of 10% of the chromogenic substrate. The protein concentrations were estimated by the Bradford method with BSA as a standard. Residual activity (%) was calculated with formula: Residual activity (%) = v/v0 ×100, where v is the initial reaction rate of enzymes under the action of an inhibitor or other factors, v0 is the initial reaction rate of enzymes in the absence of the influence of any factors. Buffer solutions of α-PsGal (0.1 U/mL) and α-NaGalase (0.01 U/mL) were used in the further experiments.
In the control sample, 5 μL of water or 2 μL of EtOH were added to 25 μL of enzyme solution. The enzyme reaction was initiated by adding 120 μL of the substrate pNP-α-Gal (3.3 mM) for α-PsGal or pNPNA-α-Gal (8.8 mM) for α-NaGalase in the respective buffer solutions. After 10 min for α-PsGal or 60 min for α-NaGalase the reaction was stopped by adding 150 μL of 1 M Na2CO3. The amount of pNP was quantified by spectrophotometric detection at 400 nm. Results were evaluated as the percent of residual activity as described above.

Data set [2] addresses T1, α-D-galactosidase (α-PsGal). Nature of the data set: Irreversibility of α-PsGal inhibition (dialysis experiment). It is filed as biochemical. Conditions: dialysis against buffer for 60 h at 4 °C; activity did not recover. Here is the method:
To determine the reversibility of the α-PsGal activity inhibition by alkaloids 2, 3, 8, and 9 15 µL of 0.625 mM aqueous solution of the compounds 2 and 3 or 6 µL of 2.5 mM ethanol solution of the compound 8 and 9 were added to 75 µL of the enzyme solution in 0.05 M sodium phosphate buffer (pH 7.0). After 30 min of the mixture incubation the aliquot of 30 µL was taken and 120 µL of 3.3 mM pNPG solution were added to initiate the reaction; the reaction was stopped by addition of 150 µL of 1M Na2CO3. The α-D-galactosidase activity was determined, as described above. The remaining reaction mixture was dialyzed against 1 L of 0.02 M sodium phosphate buffer (pH 7.0) for 60 h at 4 °C. The buffer was changed 3 times during the dialysis. The enzyme activity was determined, as described above. A sample of α-PsGal treated with H2O or EtOH in the absence of the inhibitor (75 µL of the enzyme solution and 15 µL of H2O or 6 µL of EtOH, respectively) was dialyzed and used as a control for determination of the initial activity. The experiment was carried out in two replicates. The residual activity was calculated as described above.

For data set [3] the target is unchanged. Nature of the data set: Kinetic studies of α-PsGal inactivation. It is filed as biochemical. Conditions: pH 7.0, 20 °C; for Ki / kinact: Hill equation fit; for Ki: read-out: Ki, equilibrium inhibition constant; for kinact: read-out: kinact, inactivation rate constant (converted). As to the method:
The kinetic parameters Ki and kinact were determined by classic methods. The inactivation of α-PsGal was monitored by incubation of the enzyme with different concentrations of alkaloids in […] sodium phosphate buffer, pH 7.0, at 20 °C in total volume of 30 µL (25 µL and 5 µL of α-PsGal and alkaloids, respectively), which were placed in cells of 96 cells plate. After preincubation of enzyme-inhibitor mixture for 0.5, 5, 10, 15, 20, 25, or 30 min […] the fraction of remaining enzyme activity was measured as a function of time by addition to the inactivation mixture 120 µL of a solution of pNP-α-Gal (3.3 mM). The pseudo-first-order rate constant of inactivation (kobs) was determined for each inactivator concentration as the slope of the v/v0 dependence on the incubation time in semilogarithmic coordinates. The Excel software was used for these calculations. The second order rate constants for the inactivation process were determined by fitting the dependences of the kobs values on the concentration of the inactivators to the Hill or Michaelis–Menten equations. An analysis of the graphs and the choice of models for calculation of inhibition constants (Ki, mM) and inactivation rate constants (kinact, min^–1) were performed with the Origin computer software.

For data set [4], the system named is DLD-1 cells. The experiment in a line: MTS cytotoxic activity assay on DLD-1 cells. The format is cell-based, human. Conditions: 24 h, dose up to 20 μM. Here is the method:
DLD-1 cells (8 × 10^3/200 μL) were seeded in 96-well plates for 24 h at 37 °C in a 5% CO2 incubator. The cells were treated with compounds 1–9 at concentrations ranging from 0 to 20 μM for an additional 24 h. Subsequently, cells were incubated with 15 μL MTS (3-(4,5-dimethylthiazol-2-yl)-5-(3-carboxymethoxyphenyl)-2-(4-sulfophenyl)-2H-tetrazolium) reagent for 3 h, and the absorbance in each well was measured at 490/630 nm using a microplate reader “Power Wave XS” (Bio Tek, Winooski, VT, USA). All the experiments were repeated three times, and the mean absorbance values were calculated. The results are expressed in absorbance by the compound’s treatment compared to the non-treated cells (control 1) and the compounds in medium (control 2). All the experiments were made in triplicate.

For data set [5], the system named is α-NaGalase in human colorectal adenocarcinoma cell line DLD-1. Nature of the data set: Residual α-NaGalase activity (expression) in lysate of DLD-1 cells treated with alkaloids. The format is cell-based. Conditions: DLD-1 cells treated with 5 μM for 24 h. As to the method: DLD-1cells (5.0 × 10^5) were seeded in […] for 24 h at 37 °C in a 5% CO2 incubator. Then the cells were treated with compounds 1–9 at concentrations ranging from 0 to 20 μM for an additional 24 h. Then the cells were harvested using 0.02% EDTA, after this 3 mL of cold 15 mM Tris–HCl (pH 7.0) was added.
Every 3–4 days cells were rinsed in phosphate buffered PBS, detached from the tissue culture flask by 1× trypsin/EDTA solution, harvested with RPMI-1640 medium and centrifuge at 500 rpm for 3 min. The culture media was discarded and cells pellet was resuspended in EDTA/Tris solution and frozen at −80 °C.
Frozen lysates of cancer cells in the 15 mM Tris buffer, pH 7.0 containing 0.02% EDTA, defrosted and sonicated 10 times during 1 min with a break of 1 min. To remove the cellular detritus, the cell homogenate was centrifuged at 4 °C, 10,000 rpm, 30 min. The supernatant proteins were precipitated with 35% ammonium sulfate, kept during four hours at 4 °C to form a pellet. The protein pellet was collected by centrifugation (4 °C, 10,000 rpm, 30 min) and dissolved in 0.05 M sodium citrate buffer, pH 5.0. The supernatant proteins were precipitated with 75% ammonium sulfate, kept overnight at 4 °C to form a pellet. The protein pellet was collected by centrifugation (4 °C, 10,000 rev/min, 30 min) and dissolved in 0.05 M sodium citrate buffer, pH 5.0. Both extracts were dialyzed against the same buffer, centrifuged to separate the insoluble precipitate. α-NaGalase activity was tested in both extracts and was found only in the protein fraction precipitated with 75% ammonium sulfate. This supernatant was used in further work as partly purified enzyme. The purification quality was controlled by 12% Laemmli-SDS-PAGE-electrophoresis.
The activity of α-PsGal and α-NaGalase were determined by increasing the amount of p-nithrophenol (pNP). To assay the α-NaGalase activity 0.05 mL of cell extract and 0.1 mL of substrate pNPNA-α-Gal (8.8 mM) in 0.05 M sodium citrate buffer, pH 5.0 were placed in cells of 96-well plate and incubated at 37 °C for 30 min. The mixtures containing 0.05 mL of an enzyme solution and 0.1 mL of a substrate solution (3.3 mM) in 0.05 M sodium phosphate buffer (pH 7.0) were incubated at 20 °C during 5 min for determination of α-PsGal standard activity. […]
Absorbance was measured at 400 nm. Results were read with a computer program Gen5 and treated with ExCel computer program. […] Specific activity (A) was calculated as the enzyme activity (U) per 1 mg of protein. […] Residual activity (%) was calculated with formula: Residual activity (%) = v/v0 ×100, where v is the initial reaction rate of enzymes under the action of an inhibitor or other factors, v0 is the initial reaction rate of enzymes in the absence of the influence of any factors. […]

Results on seven molecules are retold here after article PMC8147984, “Effects of Sponge-Derived Alkaloids on Activities of the Bacterial α-D-Galactosidase and Human Cancer Cell α-N-Acetylgalactosaminidase” (Biomedicines, 2021).

As to `Cn1cc2c3c1C(=O)C(N/C=C/c1ccc(O)cc1)=CC3=[N+](C)CC2` [Compound 8, makaluvamine G], in data set [1], the “inhibitory activity against α-PsGal (in words)” value (“inhibitory activity” below) was “low inhibitory activity”. Further, the “Residual activity v/v0 (%) of the α-PsGal” value (“Residual activity v/v0 (%)” for short) in data set [1] (compound concentration 1.48 mM) is 28 ^2%. In addition, in data set [2], the “irreversibility of α-PsGal inhibition” value is on record as “irreversibly inactivate”. In data set [3], the “n, Hill's coefficient of cooperativity” value worked out at 2.5; the Ki was 411 ± 86 µM; the kinact is 0.00132 s⁻¹. Moreover, the “n, Hill's coefficient of cooperativity” value in data set [3] (listed as makaluvamine G (8)) is 2.5 ± 0.97.

For the molecule `COc1cc2ccnc3c2c(c1OC)NC=C3` [Compound 1, aaptamine], in data set [4], the “cytotoxicity against DLD-1 cells” value is reported as “non-cytotoxic”. For the same molecule, the “inhibitory activity” value in data set [1] is “no notable activity”. Further, in data set [1] (compound concentration 1.67 mM), the “Residual activity v/v0 (%)” value was 79 ^1%.

Turning to `CN1CCc2c[nH]c3c2C1=CC(=O)C3=O` [Compound 6, damirone B], the “expression of the enzyme α-NaGalase (residual activity of lysate cell α-NaGalase, control 100%)” value in data set [5] is 52%. In addition, in data set [1], the “inhibitory activity” value is “no notable activity”. The “Residual activity v/v0 (%)” value in data set [1] (compound concentration 1.48 mM) is on record as 87 ^2%.

Regarding `CNCCc1cn(C)c2c1C(=O)c1c(-c3ccc(O)cc3)c[nH]c1C2=O` [Compound 9, zyzzyanone A], in data set [1], the “inhibitory activity” value is on record as “low inhibitory activity”. Besides, in data set [1] (compound concentration 1.48 mM), the “Residual activity v/v0 (%)” value is 0 ^2%. For the same molecule, the “irreversibility of α-PsGal inhibition” value in data set [2] is on record as “irreversibly inactivate”. In data set [3], the “n, Hill's coefficient of cooperativity” value is listed as 4.1; the Ki came to 105 ± 9 µM; the kinact was 0.000617 s⁻¹. Also, the “n, Hill's coefficient of cooperativity” value in data set [3] (listed as zyzzyanone A (9)) is on record as 4.10 ± 1.42.

As for `COc1cc2c3c(cc[n+](C)c3c1[O-])NC(=O)C2=O` [Compound 4, aaptanone], in data set [1], the “inhibitory activity” value is recorded as “no notable activity”. The “Residual activity v/v0 (%)” value in data set [1] (compound concentration 1.67 mM) is reported as 100 ^1%.

`Cn1cc2c3c1C(=O)C(N)=CC3=[N+](C)CC2` [Compound 7, makaluvamine H]: the “expression of the enzyme α-NaGalase (residual activity of lysate cell α-NaGalase, control 100%)” value in data set [5] stood at 50%. Moreover, the “inhibitory activity” value in data set [1] is reported as “no notable activity”. In data set [1] (compound concentration 1.48 mM), the “Residual activity v/v0 (%)” value is reported as 67 ^2%.

On to `CN1CCc2cn(C)c3c2C1=CC(=O)C3=O` [Compound 5, damirone A], for which the “inhibitory activity” value in data set [1] is given as “no notable activity”. Moreover, the “Residual activity v/v0 (%)” value in data set [1] (compound concentration 1.48 mM) was 87 ^2%.

In general, kinact refers to the maximal first-order rate at which the target is inactivated.
